# Data as given in PubChem BioAssay (NCI).
#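 Protocol summary: plate cells (96-well), add compound at 5 concentrations, incubate 48 h, interpolate endpoints linearly. GI50 is the concentration that inhibits growth by half. TGI is the concentration that stops growth completely.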
# Columns and labels:
# Assay in all cases: growth of human tumour cells (NCI), 48 h
# A549 NSCLC = system: A549 NSCLC
# HCC-2998 colon = system: HCC-2998 colon
# KM12 colon = system: KM12 colon
# NCI-H460 lung = system: NCI-H460 lung
# NCI/ADR-RES ovarian = system: NCI/ADR-RES ovarian
# OVCAR-5 ovarian = system: OVCAR-5 ovarian
# SF-268 CNS = system: SF-268 CNS
# SK-MEL-2 melanoma = system: SK-MEL-2 melanoma
# SK-MEL-28 melanoma = system: SK-MEL-28 melanoma
# SK-OV-3 ovarian = system: SK-OV-3 ovarian
SMILES,GI50 (A549 NSCLC) [µM],TGI (A549 NSCLC) [µM],GI50 (HCC-2998 colon) [µM],TGI (HCC-2998 colon) [µM],GI50 (KM12 colon) [µM],TGI (KM12 colon) [µM],GI50 (NCI-H460 lung) [µM],TGI (NCI-H460 lung) [µM],GI50 (NCI/ADR-RES ovarian) [µM],TGI (NCI/ADR-RES ovarian) [µM],GI50 (OVCAR-5 ovarian) [µM],TGI (OVCAR-5 ovarian) [µM],GI50 (SF-268 CNS) [µM],TGI (SF-268 CNS) [µM],GI50 (SK-MEL-2 melanoma) [µM],TGI (SK-MEL-2 melanoma) [µM],GI50 (SK-MEL-28 melanoma) [µM],TGI (SK-MEL-28 melanoma) [µM],GI50 (SK-OV-3 ovarian) [µM],TGI (SK-OV-3 ovarian) [µM]
CCOc1cc(-c2ccc[nH]2)[nH]c1/C=C1\N=C(C)C(C(=O)OC)=C1C,0.0531,0.58,0.0442,1.34,0.0251,1.35,0.0256,1.32,0.0432,1.47,0.0552,1.68,0.0526,1.81,0.0256,0.0893,0.143,0.9,0.183,1.57
CC(=O)N(Cc1ccccc1)c1ccccc1I(=O)=O,55.6,> 100,99.3,> 100,42,> 100,22.8,58.5,37.8,> 100,> 100,> 100,16.2,48.9,63.6,> 100,34.5,> 100,81.1,> 100
CC(=O)Oc1ccc(/C=N/NC(N)=S)nc1,29.5,> 100,8.96,> 100,4.82,> 100,9.36,> 100,3.48,> 100,69,> 100,1.91,8.59,77,> 100,25.5,> 100,17.8,> 100
COc1cnc2cc(C(=O)O)c3ccccc3c2c1,,> 100,,> 100,,> 100,,> 100,,> 100,,> 100,,> 100,,> 100,,> 100,,> 100
CN1CCN(c2nc(-c3ccncc3)nc3sc4c(c23)CCCCCC4)CC1,11.4,25.3,3.91,13.2,13.4,28,13.5,29,8.17,24.5,10.8,22.9,5.34,20.7,14.6,28.2,12.5,25.1,12.2,24.6
O=c1c2ccccc2oc2ccc(OCCCCCCN3CCCCCC3)cc12,3.51,11.5,2.97,11.6,3.2,11.5,3.46,11.3,3.73,24.6,3.24,13.5,4.35,20,3.05,9.75,2.01,4.58,2.77,8.29
O=C(Cc1ccccc1)NN1C(=O)/C(=C\c2ccc(O)cc2)SC1=Nc1ccccc1,,> 100,,> 100,,> 100,,> 100,,> 100,,> 100,,> 100,,> 100,,> 100,,> 100
O=c1[nH]c2ccccc2n1-c1n[nH]c2ccccc12,30.8,> 100,31.9,> 100,3.21,> 100,19.4,93.5,30.3,> 100,33.6,> 100,25.1,> 100,29.3,> 100,38.8,> 100,73,> 100
O=C(Cc1csc2nc(-c3ccc(Br)cc3)cn12)N/N=C/c1ccc(O)cc1,10.6,33.7,14.6,29.4,17.6,76.7,56.9,> 100,21.2,61.1,27.6,> 100,> 100,> 100,26.1,95.9,60,> 100,52.5,> 100
Cc1cc(Cl)ccc1Nc1nc(C(F)(F)F)ccc1C(=O)N1CCN(c2cccc(Cl)c2)CC1,> 100,> 100,49.3,> 100,> 100,> 100,> 100,> 100,> 100,> 100,> 100,> 100,> 100,> 100,> 100,> 100,> 100,> 100,> 100,> 100
